Measurements: patent US20040152903A1, “6-chloro-3-pyridylmethylpropylamine derivatives, preparation process thereof and bactericides” (priority 2004, published 2004)

Assays:
Rhynchosporium secalis = experiment: Antifungal activity test (PDA plate, hypha extension inhibition); assay type: cell-based; conditions: 100 ppm in PDA culture medium
Experimental: (§1) (Antifungal Activity Test against Various Pathogenic Fungi) For each of the compounds I-1 to 27 of the present invention and the comparative compounds (a) to (d), (m-1) and (m-3), 20 mg was weighed and dissolved in 2 ml of dimethylsulfoxide, and a double dilution row in 10 steps was prepared by further using dimethylsulfoxide. A 0.6 ml portion of these solutions was each added to 60 ml of a PDA culture medium (potato-dextrose-agar culture medium) at about 60° C., they were well mixed in a 100 ml Erlenmeyer flask, the solution was poured into a schale and was solidified, the plate culture media containing the compounds according to the present invention with final concentrations of 100, 50.0, 25.0, 12.5, 6.3, 3.2, 1.6, 0.8, 0.4 and 0.2 mg/l were prepared. On the other hand, the specimen bacteria cultured on the plate culture media beforehand was punched by a 4 mm diameter cork borer, and was inoculated on the plate culture media containing the aforementioned chemicals. After the inoculation, the bacteria were cultured at the optimum growth temperature of each bacterium for 1 to 7 days (for this optimum growth temperature, LIST OF CULTURES 1996 Microorganisms 10th edition published by Fermentation Research Institute (Foundation) can be referred to.), and the growth of the bacteria was measured by the diameter of a colony. […]

Pyrenophora graminea = experiment: as above; assay type: cell-based; conditions: 12.5 ppm in PDA culture medium
Experimental: as §1

Pyricularia oryzae = assay type: cell-based; conditions: 12.5 ppm in PDA culture medium
cucumber powdery mildew = experiment: Test of control effect on cucumber powdery mildew; assay type: in vivo; conditions: wettable powder 100 mg/l, 100 liters/10 a, cucumber (Sagamihanpakufushinari), examined 9th to 14th day after inoculation
Experimental: (Test of Control Effect on Cucumber Powdery Mildew) The wettable powders formulated by using each of the compounds I-1 to 27 according to the present invention and the comparative compounds (a) to (d), (m-1) and (m-3) were each diluted and suspended with water to a predetermined concentration (100 mg/l), the suspension was sprinkled over the first to the second leaf period cucumbers (variety: “[…]”) cultivated by using a square plastic pot (size: 6.4 cm×6.4 cm) in a rate of 100 liters/10 a (ares). After the sprinkled leaves were air-dried, the spores were inoculated over the leaves by sprinkling the same with a brush from an infected leaf, a disease was contracted in a glass house (temperature: 20 to 24° C., relative humidity: 20 to 70 RH). On the 9th to 14th day after the inoculation, the infection degree was examined according to the following scale and the control value of each compound was calculated by the following calculation equation 2: (Examination Scale) [table]

Septoria tritici = experiment: Antifungal activity test (PDA plate, hypha extension inhibition); assay type: cell-based; conditions: 100 ppm in PDA culture medium
Experimental: (Antifungal Activity Test against Various Pathogenic Fungi) For each of the compounds I-1 to 27 of the present invention and the comparative compounds (a) to (d), (m-1) and (m-3), 20 mg was weighed and dissolved in 2 ml of dimethylsulfoxide, and a double dilution row in 10 steps was prepared by further using dimethylsulfoxide. A 0.6 ml portion of these solutions was each added to 60 ml of a PDA culture medium (potato-dextrose-agar culture medium) at about 60° C., they were well mixed in a 100 ml Erlenmeyer flask, the solution was poured into a schale and was solidified, the plate culture media containing the compounds according to the present invention with final concentrations of 100, 50.0, 25.0, 12.5, 6.3, 3.2, 1.6, 0.8, 0.4 and 0.2 mg/l were prepared. On the other hand, the specimen bacteria cultured on the plate culture media beforehand was punched by a 4 mm diameter cork borer, and was inoculated on the plate culture media containing the aforementioned chemicals. After the inoculation, the bacteria were cultured at the optimum growth temperature of each bacterium for 1 to 7 days (for this optimum growth temperature, LIST OF CULTURES 1996 Microorganisms 10th edition published by Fermentation Research Institute (Foundation) can be referred to.), and the growth of the bacteria was measured by the diameter of a colony. […] R=100(dc−dt)/dc (Equation 3) [wherein each symbol is shown as follows: R=Hypha extension inhibition rate (%), dc=Diameter of colony on no-treated plate, dt=Diameter of colony on chemical-treated plate.] The results obtained above was evaluated in 5 steps in accordance with the following examination scale. <Growth Inhibition> 5: Hypha extension inhibition rate of 90% or more 4: Hypha extension inhibition rate of from 70% to less than 90% 3: […] 2: […] In addition, the abbreviations in Table 10 are as follows: S.t: Septoria tritici

Compound | Growth Inhibition R.s (100) (Rhynchosporium secalis) | Growth Inhibition P.g (12.5) (Pyrenophora graminea) | Growth Inhibition P.o (12.5) (Pyricularia oryzae) | Control Value (cucumber powdery mildew) | Growth Inhibition S.t (100) (Septoria tritici)
CC(Cc1ccc(C(F)(F)F)c(F)c1F)CN(C)Cc1ccc(Cl)nc1 (stereo not shown) [Compound I-10] | 4 (Hypha extension inhibition rate of from 70% to less than 90%) | 4 (Hypha extension inhibition rate of from 70% to less than 90%) | 4 (Hypha extension inhibition rate of from 70% to less than 90%) | 100 | 4 (Hypha extension inhibition rate of from 70% to less than 90%)
CC(Cc1ccc2c(c1)OC(F)(F)O2)CN(C)Cc1ccc(Cl)nc1 (stereo not shown) [Compound I-24] | 5 (Hypha extension inhibition rate of 90% or more) | 5 (Hypha extension inhibition rate of 90% or more) | 4 (Hypha extension inhibition rate of from 70% to less than 90%) | 100 | 4 (Hypha extension inhibition rate of from 70% to less than 90%)
